Patent publication US20250270159A1, “1-(CYCLOBUTANEMETHYLIDENE)-2, 4, 5-TRIMETHOXYBENZENE COMPOUND AND PREPARATION METHOD AND USE THEREOF” (CHENGDU XINRUI TAIKANG TECHNOLOGY CO., LTD., priority 2023, published 2025)
Marks after values point to notes of the source that are not given here.

Tests used:
[1] = test system: ischemic stroke induced by the filament technique in rats; experiment: Acute phase of ischemic stroke induced by the filament technique (MCAO), short-term neurological deficit score; format: in vivo; conditions: for mNSS score / Garcia score: 24 h after MCAO modeling; for mNSS score: scale 0-18, higher worse; for Garcia score: scale 3-18, lower worse
Procedure: Zea Longa score was used to determine whether the modeling was successful after 2 h of MCAO surgery, and rats with successful modeling were taken and randomly grouped for administering drugs.
The rats were randomly divided into a sham operation group (Sham group, given a blank emulsion with a volume equal to that of the high-dose CTMB group), a model group (Vehicle group, given a blank emulsion with a volume equal to that of the high-dose CTMB group), a low-dose CTMB group (CTMB-L group, 10 mg/kg), a high-dose CTMB group (CTMB-H group, 20 mg/kg), and an edaravone dexborneol injection concentrated solution group (EDB group, commercially available, 3 mg/kg). 10 rats were included in each group, which were administered by intraperitoneal injection. It should be noted that in the experiment, the mode of administration for rats was intraperitoneal injection, and a ratio of the effective dose of CTMB, the active ingredient in the emulsion injection, to the unit mass of the human body was within a range of 0.2 mg-4.0 mg/kg, which referred to the ratio of the effective dose of CTMB, the active ingredient in the emulsion injection, to the unit mass of the human body during intravenous infusion, which was extrapolated from the effective dose of the rats. Considering the different bioavailability, peak concentration, and peak time of the drug due to different species and different modes of administration, the effective dose of the active ingredient CTMB in the emulsion injection to the unit mass of human body was finally determined to be 0.2 mg-4.0 mg/kg through conversion.
The rats were fasted for 12 h before procedure, and the rats were anesthetized with 10% chloral hydrate (350 mg/kg, i.p.). The rats were fixed in the supine position, and the body temperature was maintained at about 37° C. For neck preparation, a median neck incision was made, the muscle and fascia were separated along the inner edge of the sternocleidomastoid muscle to expose the right side, the common carotid artery (CCA), external carotid artery (ECA), and internal carotid artery (ICA) were separated bluntly, and the lines were disposed of proximally in the CCA proximal end, ICA, and ECA for backup. The CCA proximal end and ECA were ligatured, and an arterial clip was used to temporarily close the ICA, then a small hole was poked at a position of CCA having about 4 mm from the bifurcation with a needle. The filament was inserted into the ICA through the CCA, the arterial clipped on ICA was loosened, and the filament was slowly advanced. When the mark on the filament reached the bifurcation and a slight resistance was felt, the thin wire at ICA was tightened, and saline was used to clean the wound and then suture was performed. The sham procedure was the same as the experimental group except that no filament was inserted. […]
Referring to the Zea Longa Neurologic Function Score (Longa EZ, Weinstein PR, Carlson S, Cummins R. Reversible middle cerebral artery occlusion without craniectomy in rats. Stroke. 1989 January; 20(1):84-91. doi: 10.1161/01.str.20.1.84.), rats were scored after 2 h of procedure when they were awake from anesthesia. […]
The neural function of the rats was comprehensively evaluated after 24 h of modeling using the modified mNSS score and Garcia score, and mNSS scoring criteria was shown in Table 3 and Garcia scoring criteria was shown in Table 4. The rats were evaluated for locomotion, sensation, and climbing, and symmetry of limbs. […]

[2] = test system: mouse model of pentylenetetrazole-induced epilepsy; experiment: Mouse model of pentylenetetrazole-induced epilepsy (Racine score, seizure rate, latency); format: in vivo, Kunming (KM) mice; conditions: for Incubation period (s), Clonic seizure / Incubation period (s), Tonic seizure: no seizure within 30 min recorded as 1800 s; for Seizure grade: pentylenetetrazole 75 mg/kg ip, Racine score within 30 min; for seizure rate, Clonic seizure / seizure rate, Tonic seizure: within 30 min
Procedure: Validation of the protective effect of CTMB in a mouse model of pentylenetetrazole-induced epilepsy. • (1) Experimental animals: specific pathogen free (SPF) adult male Kunming (KM) mice with a weight of 30-35 g. • (2) Animal grouping: the test mice were randomly divided into […], namely, saline group, low-dose CTMB group (a dose of 50 mg/kg, CTMB-L), middle-dose CTMB group (a dose of 75 mg/kg, CTMB-M), high-dose CTMB group (a dose of 100 mg/kg, CTMB-H), 10 mice in each group, and each group was administered by intraperitoneal injection. • (3) Evaluation methods and results:
After a period of drug administration, mice in each group were injected intraperitoneally with pentylenetetrazole of the epilepsy modeling drug with a dose of 75 mg/kg, and clonic seizures and tonic seizures were used as evaluation indexes. Racine scores as well as the seizure rate and latency period of clonic seizures (Racine scores of 1-3) and tonic seizures (Racine scores of 4-5) were observed and recorded for each group of mice within 30 min. Grading scale of Racine scores are as follows. Grade 0 represents normal nonepileptic activity; grade 1 represents wet-dog-like shaking or scratching; grade 2 represents head nodding or tail wagging; grade 3 represents stretching of one forelimb or clonus of one limb; grade 4 represents multiple limb clonus or tonicity; grade 5 represents falls and generalized tonic clonic seizures. If no seizure occurs in the mouse within 30 min, the latency period was recorded as 1800 s.

**Q.** How did the “toxic side effects associated with administration” value ([1]; 10 and 20 mg/kg ip, MCAO rats, acute phase test) turn out when `COc1cc(OC)c(OC)cc1C=C1CCC1` [CTMB, 1-(cyclobutylidenemethyl)-2,4,5-trimethoxybenzene] was run?
**A.** Its value is “No toxic side effects”.

**Q.** And the mNSS score ([1]; CTMB-H 20 mg/kg ip)?
**A.** Its mNSS score is 6.65 ± 2.30^##, **.

**Q.** What about the Garcia score ([1]; CTMB-H 20 mg/kg ip) of the same molecule?
**A.** Its Garcia score is 10.05 ± 1.81^##, **.

**Q.** And the mNSS score ([1]; CTMB-L 10 mg/kg ip)?
**A.** The mNSS score was 6.88 ± 2.26^##, **.

**Q.** What about the Garcia score ([1]; CTMB-L 10 mg/kg ip) of the same molecule?
**A.** Its Garcia score is 9.65 ± 1.02^##, *.

**Q.** What about the “Incubation period (s), Clonic seizure” value ([2]; CTMB-H 100 mg/kg ip) of the same molecule?
**A.** Its value is 1549.9 ± 537.1 s.

**Q.** What about the “Incubation period (s), Tonic seizure” value ([2]; CTMB-H 100 mg/kg ip) of the same molecule?
**A.** The value was 1800.0 ± 0.0 s.

**Q.** What about the Seizure grade ([2]; CTMB-H 100 mg/kg ip) of the same molecule?
**A.** The Seizure grade was 0.2 ± 0.4.

**Q.** What about the “seizure rate, Clonic seizure” value ([2]; CTMB-H 100 mg/kg ip) of the same molecule?
**A.** Its value is 20%***.

**Q.** What about the “seizure rate, Tonic seizure” value ([2]; CTMB-H 100 mg/kg ip) of the same molecule?
**A.** The value was 0%***.

**Q.** And the “Incubation period (s), Clonic seizure” value ([2]; CTMB-L 50 mg/kg ip)?
**A.** The value was 588.9 ± 657.6 s.

**Q.** And the “Incubation period (s), Tonic seizure” value ([2]; CTMB-L 50 mg/kg ip)?
**A.** The value was 1000.8 ± 700.7 s.

**Q.** What about the Seizure grade ([2]; CTMB-L 50 mg/kg ip) of the same molecule?
**A.** The Seizure grade was 4.1 ± 1.5.

**Q.** What about the “seizure rate, Clonic seizure” value ([2]; CTMB-L 50 mg/kg ip) of the same molecule?
**A.** The value was 90%.

**Q.** What about the “seizure rate, Tonic seizure” value ([2]; CTMB-L 50 mg/kg ip) of the same molecule?
**A.** The value was 70%.

**Q.** And the “Incubation period (s), Tonic seizure” value ([2]; CTMB-M 75 mg/kg ip)?
**A.** Its value is 1553.5 ± 400.4 s.

**Q.** And the Seizure grade ([2]; CTMB-M 75 mg/kg ip)?
**A.** Its Seizure grade is 1.8 ± 1.3.

**Q.** And the “seizure rate, Clonic seizure” value ([2]; CTMB-M 75 mg/kg ip)?
**A.** The value was 50%*.

**Q.** What about the “seizure rate, Tonic seizure” value ([2]; CTMB-M 75 mg/kg ip) of the same molecule?
**A.** The value was 30%**.
